# pIC50: −log10 of the molar value.
# What was measured:
# [1] = system: Human immunodeficiency virus 1; experiment: Antiviral activity against HIV1 3B in human MT4 cells in presence of 50% normal human serum; format: functional; details: Human immunodeficiency virus 1, 3B, MT4; read-out: CIC95
# [2] = Inhibition of HCV polymerase; set-up: species or system Hepacivirus hominis
# [3] = Inhibition of HIV reverse transcriptase; set-up: species or system Human immunodeficiency virus
# [4] = Inhibition of HIV ribonuclease H; set-up: species or system Human immunodeficiency virus
# [5] = Inhibition of human DNA polymerase alpha
# DNA polymerase beta = DNA polymerase beta (Homo sapiens, UniProt P06746); experiment: Inhibition of human DNA polymerase beta
# [6] = Inhibition of human DNA polymerase gamma
# Cytochrome P450 1A2 = biological target: T1, Cytochrome P450 1A2 (Homo sapiens, UniProt P05177); experiment: Inhibition of CYP1A2; format: ADME
# T1 sequence (P05177 whole entry): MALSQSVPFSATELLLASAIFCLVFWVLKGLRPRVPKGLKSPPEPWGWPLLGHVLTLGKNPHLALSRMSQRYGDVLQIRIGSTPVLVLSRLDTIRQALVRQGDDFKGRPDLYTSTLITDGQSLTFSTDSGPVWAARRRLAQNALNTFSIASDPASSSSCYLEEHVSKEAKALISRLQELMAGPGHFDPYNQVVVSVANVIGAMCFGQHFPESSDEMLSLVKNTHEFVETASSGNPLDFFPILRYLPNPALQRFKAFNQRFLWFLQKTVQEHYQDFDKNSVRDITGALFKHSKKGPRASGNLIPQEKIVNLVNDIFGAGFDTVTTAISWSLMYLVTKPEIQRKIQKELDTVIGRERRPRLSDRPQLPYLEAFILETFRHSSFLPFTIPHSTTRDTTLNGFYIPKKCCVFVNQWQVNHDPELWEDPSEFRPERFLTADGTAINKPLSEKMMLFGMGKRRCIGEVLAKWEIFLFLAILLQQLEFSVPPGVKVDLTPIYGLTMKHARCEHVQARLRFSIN
# Cytochrome P450 2C9 = Cytochrome P450 2C9 (Homo sapiens, UniProt P11712); experiment: Inhibition of CYP2C9; format: ADME
# Cytochrome P450 2D6 = Cytochrome P450 2D6 (Homo sapiens, UniProt P10635); experiment: Inhibition of CYP2D6; format: ADME
# Cytochrome P450 3A4 = Cytochrome P450 3A4 (Homo sapiens, UniProt P08684); experiment: Inhibition of CYP3A4; format: ADME
# [7] = Plasma clearance in Sprague-Dawley rat at 3 mg/kg, iv; format: ADME, organism-based; set-up: dose 3 mg/kg, route intravenous
# [8] = Terminal half life in Sprague-Dawley rat at 3 mg/kg, iv; format: ADME, organism-based; set-up: dose 3 mg/kg, route intravenous; details: in vivo, read-out: beta t1/2 (converted)
# [9] = Volume of distribution in Sprague-Dawley rat at 3 mg/kg, iv; format: ADME, organism-based; set-up: dose 3 mg/kg, route intravenous; details: in vivo
# [10] = Plasma clearance in rhesus monkey at 1 mg/kg, iv; format: ADME, organism-based, Macaca mulatta; set-up: dose 1 mg/kg, route intravenous
# [11] = Terminal half life in rhesus monkey at 1 mg/kg, iv; format: ADME, organism-based, Macaca mulatta; set-up: dose 1 mg/kg, route intravenous; details: in vivo, read-out: beta t1/2 (converted)
# [12] = Plasma clearance in dog at 1 mg/kg, iv; format: ADME, organism-based, Canis lupus familiaris; set-up: dose 1 mg/kg, route intravenous
# [13] = Terminal half life in dog at 1 mg/kg, iv; format: ADME, organism-based, Canis lupus familiaris; set-up: dose 1 mg/kg, route intravenous; details: in vivo, read-out: beta t1/2 (converted)
# [14] = Volume of distribution in dog at 1 mg/kg, iv; format: ADME, organism-based, Canis lupus familiaris; set-up: dose 1 mg/kg, route intravenous; details: in vivo
# [15] = Oral bioavailability in po dosed Sprague-Dawley rat; format: ADME, organism-based; details: in vivo
# [16] = Oral bioavailability in po dosed dog; format: ADME, organism-based, Canis lupus familiaris; details: in vivo
# [17] = Oral bioavailability in po dosed rhesus monkey; format: ADME, organism-based, Macaca mulatta; details: in vivo
# [18] = Cmax in Sprague-Dawley rat at 3 mg/kg, po; format: ADME, organism-based; set-up: dose 3 mg/kg, route oral; details: in vivo
# [19] = Cmax in dog at 10 mg/kg, po; format: ADME, organism-based, Canis lupus familiaris; set-up: dose 10 mg/kg, route oral; details: in vivo
# [20] = Cmax in dog at 2 mg/kg, po; format: ADME, organism-based, Canis lupus familiaris; set-up: dose 2 mg/kg, route oral; details: in vivo
# [21] = Cmax in po dosed rhesus monkey; format: ADME, organism-based, Macaca mulatta; set-up: route oral; details: in vivo
# [22] = Terminal half life in po dosed rhesus monkey; format: ADME, organism-based, Macaca mulatta; details: in vivo, read-out: beta t1/2 (converted)
# [23] = AUC in Sprague-Dawley rat at 3 mg/kg, po; format: ADME, organism-based; set-up: dose 3 mg/kg, route oral; details: plasma
# [24] = AUC in dog at 10 mg/kg, po; format: ADME, organism-based, Canis lupus familiaris; set-up: dose 10 mg/kg, route oral; details: plasma
# [25] = AUC in rhesus monkey at 10 mg/kg, po; format: ADME, organism-based, Macaca mulatta; set-up: dose 10 mg/kg, route oral; details: plasma
# [26] = AUC in dog at 2 mg/kg, po; format: ADME, organism-based, Canis lupus familiaris; set-up: dose 2 mg/kg, route oral; details: plasma
# [27] = system: Human immunodeficiency virus 1; experiment: Antiviral activity against HIV1 with integrase T66I/M154 mutation by single cycle infectivity assay in presence of 10%FBS; format: functional
# [28] = system: Human immunodeficiency virus 1; experiment: Antiviral activity against HIV1 with integrase T66I/S153Y mutation by single cycle infectivity assay in presence of 10%FBS; format: functional
# [29] = system: Human immunodeficiency virus 1; experiment: Antiviral activity against HIV1 with integrase N155S mutation by single cycle infectivity assay in presence of 10%FBS; format: functional
# [30] = system: Human immunodeficiency virus 1; experiment: Antiviral activity against HIV1 with integrase T125K/F121Y mutation by single cycle infectivity assay in presence of 10%FBS; format: functional
# [31] = system: Human immunodeficiency virus 1; experiment: Antiviral activity against HIV1 with integrase T66I/L74M/V151I mutation by single cycle infectivity assay in presence of 10%FBS; format: functional
# [32] = Volume of distribution in rhesus monkey at 1 mg/kg, iv; details: in vivo
# [33] = system: Human immunodeficiency virus 1; experiment: Antiviral activity against HIV1 3B in human MT4 cells in presence of 10% heat-inactivated fetal bovine serum; details: Human immunodeficiency virus 1, 3B, read-out: CIC95
# [34] = Cmax in po dosed Sprague-Dawley rat; format: ADME, organism-based; set-up: route oral; details: in vivo
# [35] = Protein binding in Sprague-Dawley rat plasma; format: ADME, cell-free; details: read-out: PPB (converted)
# [36] = Protein binding in dog plasma; format: ADME, cell-free, Canis lupus familiaris; details: read-out: PPB (converted)
# [37] = Protein binding in rhesus monkey plasma; format: ADME, cell-free, Macaca mulatta; details: read-out: PPB (converted)
# [38] = Protein binding in human plasma; format: ADME, cell-free; details: read-out: PPB (converted)
# [39] = biological target: Human immunodeficiency virus type 1 integrase (Human immunodeficiency virus 1, UniProt Q7ZJM1); experiment: Inhibition of HIV1 recombinant integrase strand transfer activity
# [40] = Terminal half life in po dosed Sprague-Dawley rat; format: ADME, organism-based; details: in vivo
# [41] = Terminal half life in dog at 10 mg/kg, po; format: ADME, organism-based, Canis lupus familiaris; set-up: dose 10 mg/kg, route oral; details: in vivo, read-out: beta t1/2 (converted)
# [42] = Plasma concentration in dog at 10 mg/kg, po after 12 hrs; format: ADME, organism-based, Canis lupus familiaris; set-up: dose 10 mg/kg, route oral
# Human immunodeficiency virus type 1 integrase, sequence (Q7ZJM1 whole entry): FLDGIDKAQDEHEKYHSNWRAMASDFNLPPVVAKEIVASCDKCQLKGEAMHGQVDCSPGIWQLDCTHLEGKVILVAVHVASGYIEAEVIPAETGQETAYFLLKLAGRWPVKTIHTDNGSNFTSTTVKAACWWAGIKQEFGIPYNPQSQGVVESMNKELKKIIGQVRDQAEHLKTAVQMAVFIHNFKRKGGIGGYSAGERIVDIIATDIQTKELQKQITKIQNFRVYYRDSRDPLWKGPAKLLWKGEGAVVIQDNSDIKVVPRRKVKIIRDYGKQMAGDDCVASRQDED
# Cytochrome P450 2D6, sequence (P10635 whole entry): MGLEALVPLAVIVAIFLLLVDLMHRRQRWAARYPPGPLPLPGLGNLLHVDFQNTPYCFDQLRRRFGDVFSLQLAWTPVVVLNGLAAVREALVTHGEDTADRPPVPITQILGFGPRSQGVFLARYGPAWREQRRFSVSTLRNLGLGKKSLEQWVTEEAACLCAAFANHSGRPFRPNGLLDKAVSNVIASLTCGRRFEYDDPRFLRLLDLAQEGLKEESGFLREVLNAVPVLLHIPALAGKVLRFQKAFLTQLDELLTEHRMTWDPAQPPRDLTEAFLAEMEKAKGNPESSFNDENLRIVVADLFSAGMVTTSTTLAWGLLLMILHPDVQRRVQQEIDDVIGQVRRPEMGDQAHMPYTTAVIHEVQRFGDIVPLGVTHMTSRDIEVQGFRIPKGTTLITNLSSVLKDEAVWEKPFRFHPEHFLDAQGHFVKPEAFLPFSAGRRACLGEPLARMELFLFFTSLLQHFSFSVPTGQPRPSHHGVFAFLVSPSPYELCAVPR
# Cytochrome P450 3A4, sequence (P08684 whole entry): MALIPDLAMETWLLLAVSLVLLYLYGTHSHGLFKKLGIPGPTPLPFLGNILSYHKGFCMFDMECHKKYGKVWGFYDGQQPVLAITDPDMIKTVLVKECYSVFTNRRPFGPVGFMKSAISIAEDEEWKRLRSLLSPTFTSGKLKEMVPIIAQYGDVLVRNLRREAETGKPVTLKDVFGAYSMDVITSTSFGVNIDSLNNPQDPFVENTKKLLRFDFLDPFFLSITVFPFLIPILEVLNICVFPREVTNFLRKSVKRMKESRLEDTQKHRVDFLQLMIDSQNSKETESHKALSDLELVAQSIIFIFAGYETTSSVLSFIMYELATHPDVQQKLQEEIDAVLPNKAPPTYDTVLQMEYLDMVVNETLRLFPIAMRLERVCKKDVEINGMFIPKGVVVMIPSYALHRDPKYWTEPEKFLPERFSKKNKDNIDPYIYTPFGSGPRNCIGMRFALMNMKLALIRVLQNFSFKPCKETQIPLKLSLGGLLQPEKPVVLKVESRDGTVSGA
# Cytochrome P450 2C9, sequence (P11712 whole entry): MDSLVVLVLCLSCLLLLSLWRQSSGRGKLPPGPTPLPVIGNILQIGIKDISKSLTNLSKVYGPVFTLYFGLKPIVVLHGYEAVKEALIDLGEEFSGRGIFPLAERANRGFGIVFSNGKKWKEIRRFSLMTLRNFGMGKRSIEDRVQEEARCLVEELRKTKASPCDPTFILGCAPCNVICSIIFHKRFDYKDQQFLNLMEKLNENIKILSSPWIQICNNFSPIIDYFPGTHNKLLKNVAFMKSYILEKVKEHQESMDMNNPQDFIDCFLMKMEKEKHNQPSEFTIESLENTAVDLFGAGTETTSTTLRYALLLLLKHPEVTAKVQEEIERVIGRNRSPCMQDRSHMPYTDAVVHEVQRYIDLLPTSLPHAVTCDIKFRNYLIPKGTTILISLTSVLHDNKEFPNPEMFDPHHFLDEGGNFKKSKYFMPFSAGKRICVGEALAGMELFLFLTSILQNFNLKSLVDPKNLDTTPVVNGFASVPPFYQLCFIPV
compound,measurement,setting,value
Cc1nnc(C(=O)NC(C)(C)c2nc(C(=O)NCc3ccc(F)cc3)c(O)c(=O)n2C)o1,IC95,[1],31 nM
same,pIC50,[2],< 4.30
same,pIC50,[3],< 4.30
same,pIC50,[4],< 4.30
same,pIC50,[5],< 4.30
same,pIC50,DNA polymerase beta,< 4.30
same,pIC50,[6],< 4.30
same,pIC50,Cytochrome P450 1A2,< 4.30
same,pIC50,Cytochrome P450 2C9,< 4.30
same,pIC50,Cytochrome P450 2D6,< 4.30
same,pIC50,Cytochrome P450 3A4,< 4.30
same,clearance,[7],39 mL/min/kg
same,half-life,[8],2 h
same,Vd,[9],2 L/kg
same,clearance,[10],18 mL/min/kg
same,half-life,[11],4 h
same,clearance,[12],6 mL/min/kg
same,half-life,[13],11 h
same,Vd,[14],0.9 L/kg
same,bioavailability,[15],37%
same,bioavailability,[16],45%
same,bioavailability,[17],8%
same,Cmax,[18],1200 nM
same,Cmax,[19],8000 nM
same,Cmax,[20],3000 nM
same,Cmax,[21],300 nM
same,half-life,[22],7 h
same,AUC,[23],1 µM·h
same,AUC,[24],21 µM·h
same,AUC,[25],1.8 µM·h
same,AUC,[26],7 µM·h
same,Activity,[27],1%
same,Activity,[28],1%
same,Activity,[29],10%
same,Activity,[30],8%
same,Activity,[31],6%
same,Vd,[32],1.2 L/kg
same,IC95,[33],19 nM
CN(C)C(C)(C)c1nc(O)c(O)c(C(=O)NCc2ccc(F)cc2)n1,IC95,[1],78 nM
same,IC95,[33],60 nM
CN1CCOCC1c1nc(C(=O)NCc2ccc(F)cc2)c(O)c(=O)n1C (centres undefined),IC95,[1],100 nM
same,IC95,[33],60 nM
O=C(NCc1ccc(F)cc1)c1nc(N2CCCCS2(=O)=O)c2cccnc2c1O,Activity,[27],3%
same,Activity,[28],1.3%
same,Activity,[29],10%
same,Activity,[30],12%
same,Activity,[31],9%
Cc1nnc(C(=O)NC(C)(C)c2nc(C(=O)NCc3ccc(F)cc3)c([O-])c(=O)n2C)o1.[Na+],Cmax,[34],1000 nM
same,AUC,[23],1.4 µM·h
same,fraction unbound,[35],0.74
same,fraction unbound,[36],0.71
same,fraction unbound,[37],0.85
same,fraction unbound,[38],0.83
Cn1c(C(C)(C)NC(=O)c2cccnn2)nc(C(=O)NCc2ccc(F)cc2)c(O)c1=O,pIC50,[39],7.82
same,IC95,[1],500 nM
same,IC95,[33],62 nM
Cn1c(C(C)(C)NC(=O)c2cnco2)nc(C(=O)NCc2ccc(F)cc2)c(O)c1=O,pIC50,[39],8.15
same,IC95,[1],500 nM
same,IC95,[33],500 nM
Cn1c(C(C)(C)NC(=O)c2cscn2)nc(C(=O)NCc2ccc(F)cc2)c(O)c1=O,pIC50,[39],8.10
same,IC95,[1],312 nM
same,IC95,[33],< 78 nM
CN(C)C(=O)C(=O)NC(C)(C)c1nc(C(=O)NCc2ccc(F)c(Cl)c2)c(O)c(=O)n1C,pIC50,[39],8.05
same,IC95,[1],130 nM
same,IC95,[33],31 nM
Cn1c(C(C)(C)NC(=O)c2ccccn2)nc(C(=O)NCc2ccc(F)cc2)c(O)c1=O,pIC50,[39],7.70
same,IC95,[1],1000 nM
same,IC95,[33],125 nM
COc1cccc(CNC(=O)c2nc(C(C)(C)NC(=O)C(=O)N(C)C)n(C)c(=O)c2O)c1OC,pIC50,[39],7.68
same,IC95,[1],> 1000 nM
same,IC95,[33],1000 nM
Cn1c(C(C)(C)NC(=O)c2c[nH]cn2)nc(C(=O)NCc2ccc(F)cc2)c(O)c1=O,pIC50,[39],8.22
same,IC95,[1],250 nM
same,IC95,[33],250 nM
CN(C)C(=O)C(=O)NC(C)(C)c1nc(C(=O)NCc2ccc(F)cc2)c([O-])c(=O)n1C.[Na+],IC95,[1],125 nM
same,bioavailability,[15],36%
same,bioavailability,[16],93%
same,Cmax,[18],4100 nM
same,Cmax,[19],32000 nM
same,half-life,[40],2.3 h
same,half-life,[41],11.9 h
same,AUC,[23],2.2 µM·h
same,AUC,[24],47 µM·h
same,fraction unbound,[35],0.65
same,fraction unbound,[36],0.62
same,fraction unbound,[37],0.82
same,fraction unbound,[38],0.72
same,concentration at 12 h,[42],246 nM
Cn1c(C(C)(C)N2CCOCC2)nc(C(=O)NCc2ccc(F)cc2)c(O)c1=O,pIC50,[39],8.52
same,IC95,[1],500 nM
same,IC95,[33],65 nM
CN(C)C1(c2nc(C(=O)NCc3ccc(F)cc3)c(O)c(=O)n2C)CCOCC1,pIC50,[39],8.70
same,IC95,[1],1000 nM
same,IC95,[33],250 nM

# From ChEMBL document CHEMBL1140081 (J Med Chem, 2008)
